Consider eleven compounds from patent US12172995B2, “Substituted indole and indazole compounds” (BRISTOL-MYERS SQUIBB COMPANY, priority 2018, dated 2024).

Holding throughout (type): cell-based
The target of one test is T1, human TLR9 (Homo sapiens, UniProt Q9NR96).
T1 construct: host or cells: HEK-Blue cells
T1 sequence (Q9NR96 26-1032): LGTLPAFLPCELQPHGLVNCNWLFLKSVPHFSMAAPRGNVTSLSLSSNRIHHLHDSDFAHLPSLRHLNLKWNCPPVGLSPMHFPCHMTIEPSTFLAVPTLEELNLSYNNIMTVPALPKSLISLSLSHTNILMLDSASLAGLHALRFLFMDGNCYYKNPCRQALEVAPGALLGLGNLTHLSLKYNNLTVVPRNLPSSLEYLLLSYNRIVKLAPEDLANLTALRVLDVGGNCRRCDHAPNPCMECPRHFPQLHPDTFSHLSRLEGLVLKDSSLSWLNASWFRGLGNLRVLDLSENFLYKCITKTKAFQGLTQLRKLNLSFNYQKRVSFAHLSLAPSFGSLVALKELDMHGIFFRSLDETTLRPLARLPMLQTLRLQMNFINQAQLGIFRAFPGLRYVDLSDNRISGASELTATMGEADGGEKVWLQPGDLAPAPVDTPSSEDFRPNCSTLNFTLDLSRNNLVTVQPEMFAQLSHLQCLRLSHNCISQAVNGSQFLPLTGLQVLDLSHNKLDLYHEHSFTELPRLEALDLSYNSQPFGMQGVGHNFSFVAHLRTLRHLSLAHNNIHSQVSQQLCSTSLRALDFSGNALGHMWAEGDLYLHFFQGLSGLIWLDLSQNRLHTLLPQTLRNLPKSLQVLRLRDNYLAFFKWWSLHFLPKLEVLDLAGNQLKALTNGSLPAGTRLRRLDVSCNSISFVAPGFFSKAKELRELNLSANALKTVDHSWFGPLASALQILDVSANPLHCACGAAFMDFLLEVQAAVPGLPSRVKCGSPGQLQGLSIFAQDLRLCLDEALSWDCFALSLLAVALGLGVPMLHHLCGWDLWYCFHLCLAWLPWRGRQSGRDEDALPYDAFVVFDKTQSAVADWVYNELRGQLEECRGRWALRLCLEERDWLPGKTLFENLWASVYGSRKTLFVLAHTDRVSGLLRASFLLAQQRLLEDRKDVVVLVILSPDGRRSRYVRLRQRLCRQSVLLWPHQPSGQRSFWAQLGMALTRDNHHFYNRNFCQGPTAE
Briefly: TLR9 inhibition reporter assay (HEK-Blue SEAP). The following applies: HEK-Blue cells overexpressing human TLR9, stimulated with ODN2006 5 nM, 22 hour incubation. As for the experimental part:
(§1) TLR7/8/9 Inhibition Reporter Assays
(§2) HEK-Blue™-cells (Invivogen) overexpressing human TLR7, TLR8 or TLR9 receptors were used for screening inhibitors of these receptors using an inducible SEAP (secreted embryonic alkaline phosphatase) reporter gene under the control of the IFN-β minimal promoter fused to five NF-κB and AP-1-binding sites. Briefly, cells are seeded into Greiner 384 well plates (15000 cells per well for TLR7, 20,000 for TLR8 and 25,000 for TLR9) and then treated with test compounds in DMSO to yield a final dose response concentration range of 0.05 nM to 50 μM. After a 30 minute compound pre-treatment at room temperature, the cells are then stimulated with a TLR7 ligand (gardiquimod at a final concentration of 7.5 μM), TLR8 ligand (R848 at a final concentration of 15.9 μM) or TLR9 ligand (ODN2006 at a final concentration of 5 nM) to activate NF-κB and AP-1 which induce the production of SEAP. After a 22 hour incubation at 37° C., 5% CO2, SEAP levels are determined with the addition of HEK-Blue™ Detection reagent (Invivogen), a cell culture medium that allows for detection of SEAP, according to manufacturer's specifications. The percent inhibition is determined as the % reduction in the HEK-Blue signal present in wells treated with agonist plus DMSO alone compared to wells treated with a known inhibitor.

The target in a further test is T2, human TLR7 (Homo sapiens, UniProt Q9NYK1).
T2 construct: host or cells: HEK-Blue cells
T2 sequence (Q9NYK1 27-1049): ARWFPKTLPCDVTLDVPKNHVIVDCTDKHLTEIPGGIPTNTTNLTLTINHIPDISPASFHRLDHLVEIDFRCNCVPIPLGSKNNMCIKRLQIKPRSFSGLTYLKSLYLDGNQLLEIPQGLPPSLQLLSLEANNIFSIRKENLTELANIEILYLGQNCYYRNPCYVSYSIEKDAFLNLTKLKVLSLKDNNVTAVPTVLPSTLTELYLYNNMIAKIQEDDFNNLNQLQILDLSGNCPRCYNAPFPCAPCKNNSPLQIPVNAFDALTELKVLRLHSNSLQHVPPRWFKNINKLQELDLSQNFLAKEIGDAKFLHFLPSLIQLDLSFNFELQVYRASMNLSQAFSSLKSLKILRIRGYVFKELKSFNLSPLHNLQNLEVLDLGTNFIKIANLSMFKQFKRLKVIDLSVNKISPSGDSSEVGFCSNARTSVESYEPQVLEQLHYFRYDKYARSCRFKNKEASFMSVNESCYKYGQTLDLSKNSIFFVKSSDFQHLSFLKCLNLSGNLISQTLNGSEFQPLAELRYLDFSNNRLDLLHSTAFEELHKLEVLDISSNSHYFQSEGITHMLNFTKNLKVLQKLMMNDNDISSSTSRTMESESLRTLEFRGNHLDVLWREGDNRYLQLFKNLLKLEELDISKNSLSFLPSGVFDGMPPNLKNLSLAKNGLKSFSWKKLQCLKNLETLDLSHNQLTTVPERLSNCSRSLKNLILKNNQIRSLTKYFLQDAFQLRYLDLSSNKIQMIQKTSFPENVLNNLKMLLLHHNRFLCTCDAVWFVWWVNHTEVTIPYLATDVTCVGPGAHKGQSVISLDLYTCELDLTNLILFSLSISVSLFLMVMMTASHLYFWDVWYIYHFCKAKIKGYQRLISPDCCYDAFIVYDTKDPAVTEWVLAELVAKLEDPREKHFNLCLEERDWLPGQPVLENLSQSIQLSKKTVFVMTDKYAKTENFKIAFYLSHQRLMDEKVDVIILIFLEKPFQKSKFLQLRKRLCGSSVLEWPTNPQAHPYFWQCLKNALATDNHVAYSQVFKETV
Put plainly: TLR7 inhibition reporter assay (HEK-Blue SEAP). The following applies: HEK-Blue cells overexpressing human TLR7, stimulated with gardiquimod 7.5 μM, 22 hour incubation. As for the experimental part: as §1, §2
On the technique in general: A reporter such as luciferase makes a cellular process visible.

In another test the target is T3, human TLR8 (Homo sapiens, UniProt Q9NR97).
T3 construct: host or cells: HEK-Blue cells
T3 sequence (Q9NR97 27-1041): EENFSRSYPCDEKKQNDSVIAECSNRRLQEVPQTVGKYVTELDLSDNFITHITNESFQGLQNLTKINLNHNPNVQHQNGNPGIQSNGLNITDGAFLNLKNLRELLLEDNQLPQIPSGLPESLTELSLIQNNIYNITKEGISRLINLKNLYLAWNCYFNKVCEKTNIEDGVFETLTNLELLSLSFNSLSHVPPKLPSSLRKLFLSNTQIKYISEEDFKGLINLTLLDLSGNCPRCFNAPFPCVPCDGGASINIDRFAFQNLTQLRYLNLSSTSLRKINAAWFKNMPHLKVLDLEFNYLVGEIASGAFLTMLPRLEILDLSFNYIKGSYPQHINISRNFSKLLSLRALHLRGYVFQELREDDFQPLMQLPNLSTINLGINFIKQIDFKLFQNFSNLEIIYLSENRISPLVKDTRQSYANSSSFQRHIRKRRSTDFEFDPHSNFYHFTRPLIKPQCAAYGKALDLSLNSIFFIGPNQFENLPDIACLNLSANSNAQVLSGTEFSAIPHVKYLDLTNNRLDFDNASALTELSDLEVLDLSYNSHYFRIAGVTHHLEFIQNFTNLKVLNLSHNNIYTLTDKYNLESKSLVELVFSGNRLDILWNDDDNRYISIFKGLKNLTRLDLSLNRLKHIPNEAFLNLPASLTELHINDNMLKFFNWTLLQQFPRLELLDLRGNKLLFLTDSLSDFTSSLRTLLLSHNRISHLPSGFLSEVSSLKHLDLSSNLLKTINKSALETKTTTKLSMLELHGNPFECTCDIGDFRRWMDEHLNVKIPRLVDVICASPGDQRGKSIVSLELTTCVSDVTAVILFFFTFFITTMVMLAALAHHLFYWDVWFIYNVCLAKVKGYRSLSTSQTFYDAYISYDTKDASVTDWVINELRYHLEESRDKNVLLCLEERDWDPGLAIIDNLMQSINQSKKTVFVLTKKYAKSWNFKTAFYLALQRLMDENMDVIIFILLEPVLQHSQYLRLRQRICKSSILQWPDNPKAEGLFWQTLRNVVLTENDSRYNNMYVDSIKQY
Put plainly: TLR8 inhibition reporter assay (HEK-Blue SEAP). The following applies: HEK-Blue cells overexpressing human TLR8, stimulated with R848 15.9 μM, 22 hour incubation. As for the experimental part:
as §1, §2

pIC50: −log10 of the molar value.

A word on the pIC50: it is −log10 of the IC50, conventionally taken in molar units. Higher therefore signals a low IC50. `Cc1cc(-c2cc(C)c3ncnn3c2)cc2[nH]nc(C3CCN(C4CCOCC4)CC3)c12` [Example 78, 8-methyl-6-(4-methyl-3-(1-(tetrahydro-2H-pyran-4-yl)piperidin-4-yl)-1H-indazol-6-yl)-[1,2,4]triazolo[1,5-a]pyridine]: the pIC50 is 4.61 against human TLR9, 7.04 against human TLR7 and 6.60 against human TLR8.

In the case of `CCc1cc2c(C3CCC(NC4CC4)CC3)n[nH]c2cc1-c1cc(C)c2ncnn2c1` (single isomer, unassigned) [Example 97, N-cyclopropyl-4-(5-ethyl-6-(8-methyl-[1,2,4]triazolo[1,5-a]pyridin-6-yl)-1H-indazol-3-yl)cyclohexan-1-amine], the pIC50 at human TLR9 is 5.26; against human TLR7, 9.22; at human TLR8, 10.00.

`COC1CN(C2CCC(c3n[nH]c4cc(-c5cc(C)c6ncnn6c5)c(C(C)C)cc34)CC2)C1` (stereo not drawn) [Example 145, 6-(5-isopropyl-3-(4-(3-methoxyazetidin-1-yl)cyclohexyl)-1H-indazol-6-yl)-8-methyl-[1,2,4]triazolo[1,5-a]pyridine]: the pIC50 at human TLR9 was 5.06; at human TLR7, 8.82; at human TLR8 it was 9.10.

As for `CCc1cc2c(C3CCN(C(=O)CCN(C)C)CC3)n[nH]c2cc1-c1cc(C)c2ncnn2c1` [Example 103, 3-(dimethylamino)-1-(4-(5-ethyl-6-(8-methyl-[1,2,4]triazolo[1,5-a]pyridin-6-yl)-1H-indazol-3-yl)piperidin-1-yl)propan-1-one], the values for the pIC50 on human TLR9, against human TLR7 and against human TLR8 were 4.91, 7.96 and 9.05, respectively.

For `Cc1cc(-c2cc3[nH]nc(C4CCC(NC5CC5)CC4)c3cc2C(C)C)cn2ncnc12` (single isomer, unassigned) [Example 119, N-cyclopropyl-4-(5-isopropyl-6-(8-methyl-[1,2,4]triazolo[1,5-a]pyridin-6-yl)-1H-indazol-3-yl)cyclohexan-1-amine], the pIC50 against human TLR9 is 5.31; at human TLR7 it was 9.00; at human TLR8, 10.00.

In the case of `Cc1cc(-c2ccc3c(C4CCNCC4)n[nH]c3c2)cn2ncnc12` [Example 17, 8-methyl-6-(3-(piperidin-4-yl)-1H-indazol-6-yl)-[1,2,4]triazolo[1,5-a]pyridine], the figures for the pIC50 at human TLR9, at human TLR7 and against human TLR8 were 5.50, 6.41 and 6.48, respectively.

With `Cc1cc(-c2cc3[nH]nc(C4CCC(N5CCC5)CC4)c3cc2C(C)C)cn2ncnc12` (single isomer, unassigned) [Example 138, 6-(3-(4-(azetidin-1-yl)cyclohexyl)-5-isopropyl-1H-indazol-6-yl)-8-methyl-[1,2,4]triazolo[1,5-a]pyridine], the pIC50 against human TLR9 was 5.23; at human TLR7, 9.00; on human TLR8 it was 9.30.

Turning to `Cc1cc2c(C3CCN(CC(C)(C)O)CC3)n[nH]c2cc1-c1cc(C)c2ncnn2c1` [Example 67, 2-methyl-1-(4-(5-methyl-6-(8-methyl-[1,2,4]triazolo[1,5-a]pyridin-6-yl)-1H-indazol-3-yl)piperidin-1-yl)propan-2-ol], the pIC50 against human TLR9 was 5.40; against human TLR7 it was 7.62; on human TLR8, 9.05.

For the compound `Cc1cc2c(OCCN(C)C)n[nH]c2cc1-c1cc(C)c2ncnn2c1` [Example 172, N,N-dimethyl-2-((5-methyl-6-(8-methyl-[1,2,4]triazolo[1,5-a]pyridin-6-yl)-1H-indazol-3-yl)oxy)ethan-1-amine], the pIC50 against human TLR9 was 5.29; at human TLR7 it was 7.43; against human TLR8, 8.85.

With `Cc1cc2c(C3CCCN(C(=O)CN(C)C)C3)n[nH]c2cc1-c1cc(C)c2ncnn2c1` (stereo not drawn) [Example 40, 2-(dimethylamino)-1-(3-(5-methyl-6-(8-methyl-[1,2,4]triazolo[1,5-a]pyridin-6-yl)-1H-indazol-3-yl)piperidin-1-yl)ethan-1-one], the pIC50 at human TLR9 is 4.88; against human TLR7 it was 7.63; at human TLR8, 8.34.

Take `Cc1cc2c(C3CCCNC3)n[nH]c2cc1-c1cc(C)c2ncnn2c1` (stereo not drawn) [Example 24, 8-methyl-6-(5-methyl-3-(piperidin-3-yl)-1H-indazol-6-yl)-[1,2,4]triazolo[1,5-a]pyridine]: the values for the pIC50 at human TLR9, against human TLR7 and against human TLR8 were 6.06, 7.80 and 8.96, respectively.
